Test results: US20200338028A1, “BENZENESULFONAMIDE DERIVATIVES AND METHOD FOR MODULATING LIPID RAFT” (Gongwin Biopharm Co., Ltd., priority 2017, published 2020)
“Also recorded” adds a separate entry of the source. Read-outs that look alike come from different tables or passages of the source.

Assays:
[1] = test system: PC-3 cells; experiment: colony formation (clonogenic) assay; assay type: cell-based, human; details: for IC50: Homo sapiens, PC-3, 240 h, 10 days, FIG. 4F, read-out: IC50, growth inhibition, colony formation assay
Method: To assay the anchorage-dependent clonogenic effect, each individual PC-3 and DU-145 cells (150 cells/well) were seeded in a 6-well plate. After a 10-day treatment with p-TSA, the cell colonies were rinsed with phosphate-buffered saline (PBS), stained with 0.4% (w/v) crystal violet dissolved in 20% methanol, and lysed by 50 mM sodium citrate dissolved in 50% ethanol. The absorbance was read at a wavelength of 595 nm.
To further substantiate the role of Akt, the Myr-Akt overexpressed PC-3 cells were prepared with the method shown as follows. The plasmid encoding Myr-Akt, an N-terminally myristoylation signal-attached Akt, was a gift from Professor Mien-Chie Hung (The University of Texas, M.D. Anderson Cancer Center). For transfection, PC-3 cells were seeded into 60-mm tissue culture dishes with 30% confluence and grown for 24 h to 50-60% confluence. Each dish was washed with serum-free Opti-MEM (Life Technologies), and 2 ml of the serum-free Opti-MEM was then added. Aliquots containing Myr-Akt expression vector or a control plasmid in serum-free Opti-MEM were transfected into cells using Lipofectamine 2000 (Invitrogen) following the manufacturer's instructions. After incubation for 6 h at 37° C., cells were washed with serum-free Opti-MEM and incubated in 10% FBS-containing RPMI-1640 medium for 48 h. The cells were treated with or without p-TSA and then the related analyses were performed. […] Furthermore, the functional rescue of Myr-Akt was determined. […] However, overexpression of Myr-Akt had minimal effect on p-TSA-induced cyclin D1 down-regulation.

[2] = test system: DU-145 cells; experiment: propidium iodide staining, cell cycle distribution by flow cytometry; assay type: cell-based, human; details: DU-145, 24 h, FIG. 2A
Method: (§1) Flow cytometric analysis was performed as follows. Cells were harvested by trypsinization, fixed with 70% (v/v) alcohol at 4° C. for 30 min and washed with PBS. After centrifugation, the cells were incubated in phosphate-citric acid buffer (0.2 mol/l NaHPO4, 0.1 mol/l citric acid, pH 7.8) for 30 min at room temperature. The cells were then centrifuged and resuspended with 0.5 ml propidium iodide (PI) solution containing Triton X-100 (0.1% v/v), RNase (100 μg/ml) and PI (80 μg/ml). DNA content was analyzed with the FACScan and CellQuest software (Becton Dickinson, Mountain View, Calif., United States).

[3] = test system: PC-3 cells; experiment: as above; assay type: cell-based, human; details: PC-3, 24 h, FIG. 2A
Method: as §1

[4] = test system: PC-3-derived cancer xenografts; experiment: in vivo anti-tumor xenograft model; set-up: species or system nude mice
Method: In vivo anti-tumor study was performed as follows. PC-3-derived cancer xenografts in nude mice were used as an in vivo model. The nude mice were subcutaneously injected with PC-3 cells (10^7 cell/mouse). The tumors were measured every day. When the tumors reached a volume of 100 mm^3, the mice were divided into two groups (n=8-10), and compound treatment was initiated. p-TSA was dissolved in 15% 1-methyl-2-pyrrolidone (NMP). Vehicle (15% NMP) or p-TSA was given intraperitoneally every other day. The length (1) and width (w) of the tumor were measured, and tumor volume was calculated as lw^2/2. The protocols of the in vivo study were approved by the Animal Care and Use Committee at National Taiwan University. All animal procedures and protocols were approved by AAALAC-accredited facility. Data were presented as mean±standard error of the mean (SEM) for the indicated number of separate experiments. The statistical analysis was performed using one way analysis of variance (ANOVA) for multiple sample sets. Single comparisons of appropriate groups were done with Student's t-test. P-values less than 0.05 are statistically considered significant.
The tumor xenograft in nude mice models after subcutaneously inoculated PC-3 cells was used to conduct in vivo efficacy evaluation of p-TSA. The operator was fully blinded to the experimental treatment. The initial intraperitoneal injection of 75 mg/kg p-TSA was given when the tumor reached a size of 100 mm^3 (p-TSA group 121±40 mm^3 v.s. control group 101±48 mm^3). First, the tumor growth inhibition treatment/control (T/C) ratio was used to quantify the treatment effect of p-TSA in the mouse xenograft model.

[5] = test system: DU-145 cells; experiment: JC-1 staining, mitochondrial membrane potential; assay type: cell-based, human; details: DU-145, 24 h, JC-1, FIG. 2B
Method: (§2) Mitochondria generate the majority of ATP to synthesize bioactive components such as proteins, lipids and nucleotides for cell growth and proliferation. The stress onto mitochondria and interference with ATP production have shown to induce cell cycle arrest. Measurement of mitochondrial membrane potential (ΔΨm) was performed as follows. JC-1, a mitochondrial dye staining mitochondria in living cells in a membrane potential-dependent fashion, was used to determine the mitochondrial membrane potential (ΔΨm). PC-3 and DU145 cells were treated with or without p-TSA. Thirty minutes before the termination of incubation, the cells were incubated with JC-1 (final concentration of 5 μM) at 37° C. for 30 min. The cells were finally harvested, and the accumulation of JC-1 was determined using flow cytometric analysis. […] An increase in the permeability of the outer mitochondrial membrane that leads to the release of apoptogenic factors is the key to cell apoptosis. Mitochondrial membrane permeability is directly controlled by Bcl-2 family of proteins.

[6] = test system: PC-3 cells; experiment: JC-1 staining, mitochondrial membrane potential; assay type: cell-based, human; details: PC-3, 24 h, JC-1, FIG. 2B
Method: as §2

- IC50 ([1]; PC-3 overexpressing constitutively active Myr-Akt): 680 ± 20 µM
- IC50 ([1]; PC-3 without Myr-Akt overexpression): 580 ± 20 µM
- loss of body weight versus control group ([4]; 75 mg/kg intraperitoneally, FIG. 7C): no significant between-group difference
- day on which the group reached a 20% loss of body weight ([4]; 75 mg/kg intraperitoneally, control group 12th day): 22 days
Compound: Cc1ccc(S(N)(=O)=O)cc1 [p-TSA, para-toluenesulfonamide]
- anti-proliferative effect, clonogenic assay ([1]; PC-3, 10 days, FIG. 1B): long-term anti-proliferative effect
- cell apoptosis [2]: accelerated cell apoptosis
- distribution of cell populations in cell cycle phases [2]: accumulation of both PC-3 cells and DU-145 cells in G1 phase
- cell apoptosis [3]: accelerated cell apoptosis
- distribution of cell populations in cell cycle phases [3]: accumulation of both PC-3 cells and DU-145 cells in G1 phase
- median tumor size ([4]; 75 mg/kg intraperitoneally): 403 mm^3
- tumor growth inhibition treatment/control (T/C) ratio ([4]; 75 mg/kg intraperitoneally every other day, end of treatment, FIG. 7A): 0.44
- tumor growth rate ([4]; 75 mg/kg intraperitoneally, FIG. 7B): 16.8 mm^3/day
- inhibition by median tumor size ([4]; 75 mg/kg intraperitoneally, versus 765 mm^3 in the control group): 47%
- inhibition of tumor growth rate ([4]; 75 mg/kg intraperitoneally, versus control group 37.8 mm^3/day): 56%
- p-Akt expression in tumors ([4]; six randomly selected tumors, FIG. 7D, listed as PTS): significant inhibitory effect; also recorded: significantly inhibited
- mitochondrial membrane potential [5]: concentration-dependent decrease
- mitochondrial membrane potential [6]: concentration-dependent decrease
